Patent EP0272446B1, “Novel antiviral agents” (SRI INTERNATIONAL, priority 1983, dated 1984)
Values after ≈ are worked out from the molar mass of the structure shown. Where two headings read alike, the source gives them in different places.

Columns and labels:
[1] = system: thymidine kinase positive herpes virus; assay: In vivo test in guinea pigs inoculated with herpes virus, lesions measured; conditions: for Satellite lesions: five days later; for TK+ virus, average number of lesions: measured five days later
Protocol: The compound of Example II was tested in vivo in guinea pigs as an agent against thymidine kinase positive herpes virus. The animals were innoculated with the virus. Eighteen hours later the material of Example II (0.4% solution in water or 1-2% solution), a 5% solution of acyclovir or a 1.4% solution of poly(vinylalcohol) was administered and five days later blister diameters at the point of innoculation were measured. Satellite lesions were measured as well.

[2] = system: Thymidine Kinase-Positive Type 1 Herpes Virus; assay: In vitro antiviral test, inhibition of viral cytopathic effect (CPE) in MA-104 cell monolayers; assay type: cell-based, Strain McCrae of type 1 herpes
Protocol: The compounds of Example I and II were evaluated in vitro as antiviral agents against herpes virus.
The virus strain employed was Strain McCrae of type 1 herpes (thymidine kinase positive virus) prepared and titered in MA-104 cells and frozen at -90°C until use.
(§1) Continuous passaged monkey kidney (MA-104) cells were used, with growth medium consisting of Minimum Essential Medium (MEM) supplemented with 0.1% NaHCO₃ and 9% fetal calf serum. Test medium consisted of MEM supplemented with 2% fetal bovine serum, 0.18% NaHCO₃ and […] gentamicin.
The last compounds were added to test medium at a concentration of 2000 µg/ml for use as a positive control.
(§2) To a 96 well microtiter plate containing an established 24 hour monolayer of cells from which the medium has been decanted was added 0.1 ml of varying (one-half log₁₀) concentrations of test compound, which incubated on the cell 15 minutes, after which 0.1 ml of virus in a concentration of 320 cell culture 50% infectious doses (CCID50)/0.1 ml was added. The plate was covered with plastic wrap and incubated at 37°C. Included with the test were toxicity controls (each concentration of compound + test medium in place of […]) and cell controls (test medium in place of compound and virus). The cells were examined microscopically after 72 hours for evidence of cytotoxicity and for viral cytopathic effect (CPE). Vidarabine was run on the same plate in parallel.
(§3) Antiviral activity was determined by observation of inhibition of viral CPE. This activity was expressed by minimum inhibitory concentration (MIC), Defined as that dose range of compound causing 50% CPE inhibition. A Virus Rating (VR) was also determined, which is a numerical expression of antiviral activity, weighted to take into account any cytotoxicity observed. Generally, a VR of 0.1 - 0.4 is usually indicative of slight antiviral effect, 0.5 - 0.9 indicates moderate antiviral effedt, and >1.0 implies strong antiviral activity.

[3] = Cytotoxicity (toxicity controls) in the antiviral test, maximum tolerated dose; assay type: cell-based; conditions: monkey, ma-104 cells, Table B
Protocol: as §1, §2

cytomegalo virus = assay: In vitro antiviral test (CPE inhibition method) against cytomegalo virus; assay type: cell-based
Protocol: as §2
as §3, with “Generally, a VR of 0.1 - 0.4 is usually indicative of slight antiviral effect, 0.5 - 0.9 indicates moderate antiviral effedt, and >1.0 implies strong antiviral activity.” left out
The compound of Example II was further evaluated by the above-described in vitro test method against cytomegalo virus. […]

[4] = 5% solution given eighteen hours after inoculation
[5] = Table A, 0.1 - 0.4 = slight, 0.5 - 0.9 = moderate, ≥ 1.0 = strong activity
[6] = Test 1, read-out: MTD (Maximum tolerated dose)
[7] = Test 2, read-out: MTD (Maximum tolerated dose)
[8] = 0.4% solution in water given eighteen hours after inoculation
[9] = 1-2% saturated solution given eighteen hours after inoculation
[10] = MA104, read-out: MIC (Minimum inhibitory concentration)
[11] = MA104, read-out: Test1 CPE Inhib. (%)
[12] = MA104, read-out: Test2 CPE Inhib. %
[13] = MA104, 72 h, read-out: CPE Inhib. (%)

| Compound | VR (Virus rating) [2, 5] | MNTC at 72 h [3, 6] | MNTC at 72 h [3, 7] | EC50 [2, 10] | inhibition at 3.2 µg/mL [2, 11] | inhibition at 10 µg/mL [2, 11] | inhibition at 32 µg/mL [2, 11] | inhibition at 100 µg/mL [2, 11] | inhibition at 320 µg/mL [2, 11] | inhibition at 1000 µg/mL [2, 11] | inhibition at 3.2 µg/mL [2, 12] | inhibition at 10 µg/mL [2, 12] | inhibition at 32 µg/mL [2, 12] | inhibition at 100 µg/mL [2, 12] | inhibition at 320 µg/mL [2, 12] | inhibition at 1000 µg/mL [2, 12] | VR (Virus rating) ([2]; Table B, Test 1) | VR (Virus rating) ([2]; Table B, Test 2) | further results |
| --- | --- | --- | --- | --- | --- | --- | --- | --- | --- | --- | --- | --- | --- | --- | --- | --- | --- | --- | --- |
| Nc1nc2c(ncn2COCCO)c(=O)[nH]1 [Acyclovir, acyclovir, reference compound] |  |  |  |  |  |  |  |  |  |  |  |  |  |  |  |  |  |  | Satellite lesions [1, 4]: 4; TK+ virus, average number of lesions [1, 4]: 1.0 |
| Nc1nc2c(ncn2COCCCP(=O)(O)O)c(=O)[nH]1 [Example I, 9(3-phosphono-1-propyloxymethyl)guanine] | 1.4 |  |  |  |  |  |  |  |  |  |  |  |  |  |  |  |  |  | inhibition at 1 µg/mL ([2]; MA104, Table A, conc. 1.0 μg/ml, 72 hours, read-out: CPE Inhib. (%)): 31%; inhibition at 3.2 µg/mL ([2]; MA104, Table A, conc. 3.2 μg/ml, 72 hours, read-out: CPE Inhib. (%)): 28%; inhibition at 10 µg/mL ([2]; MA104, Table A, conc. 10 μg/ml, 72 hours, read-out: CPE Inhib. (%)): 49%; inhibition at 32 µg/mL ([2]; MA104, Table A, conc. 32 μg/ml, 72 hours, read-out: CPE Inhib. (%)): 62%; inhibition at 100 µg/mL ([2]; MA104, Table A, conc. 100 μg/ml, 72 hours, read-out: CPE Inhib. (%)): 79%; inhibition at 320 µg/mL ([2]; MA104, Table A, conc. 320 μg/ml, 72 hours, read-out: CPE Inhib. (%)): 94%; inhibition at 1000 µg/mL ([2]; MA104, Table A, conc. 1000 μg/ml, 72 hours, read-out: CPE Inhib. (%)): 100%; EC50 ([2]; MA104, Table A, dosage range wherein a 50% CPE inhibition is seen, read-out: MIC (Minimum inhibitory concentration)): 10 µg/mL (≈ 33 µM) |
| CCOP(=O)(O)CCCOCn1cnc2c(=O)[nH]c(N)nc21 [Example II, 9(3-ethylphosphono-1-propyloxymethyl)guanine] |  | 320 µg/mL | > 1000 µg/mL | < 1 µg/mL | 96% | 38% | 6% | 47% | 82% | 100% | 52% | 48% | 57% | 57% | 67% | 76% | >2.0 | >1.4 | Satellite lesions [1, 8]: 11; TK+ virus, average number of lesions [1, 8]: 2.1; Satellite lesions [1, 9]: 6; TK+ virus, average number of lesions [1, 9]: 0.9; inhibition at 1.2 µg/mL [2, 11]: 69%; inhibition at 1.2 µg/mL [2, 12]: 48%; MIC (Minimum inhibitory concentration) ([2]; Table B, Test 2, dosage range wherein a 50% CPE inhibition is seen): <1.0 µg/mL; VR (cytomegalo virus): 2.1-2.3 |
| Nc1ncnc2c1ncn2[C@@H]1O[C@H](CO)[C@@H](O)[C@@H]1O [Vidarabine, reference compound] | 1.3 | 10 µg/mL | 10 µg/mL | 10 µg/mL (≈ 37.4 µM) | 2% | 60% | 96% | 96% | 100% | 100% | 0% | 39% | 57% | 85% | 100% | 100% | 0.8 | 07 | inhibition at 1 µg/mL [2, 13]: 56%; inhibition at 3.2 µg/mL [2, 13]: 28%; inhibition at 10 µg/mL [2, 13]: 69%; inhibition at 32 µg/mL [2, 13]: 87%; inhibition at 100 µg/mL [2, 13]: 87%; inhibition at 320 µg/mL [2, 13]: 100%; inhibition at 1000 µg/mL [2, 13]: 100% |
